Tests used:
[1] = system: L. (L.) infantum promastigotes; test: Cell cycle (propidium iodide, flow cytometry); type: cell-based, Leishmania (L.) infantum; details: 24 h; compound 1 169.2 µM, miltefosine 25 µM
Experimental: Promastigotes (2 × 10^6/well) in exponential phase, were treated with compound 1 (169.2 µM) in M199 medium supplemented with 10% FBS and 0.25% hemin, pH 7.2, for 24 h at 24°C. In sequence, 70% (vol/vol) ice-cold ethanol was used for cell permeabilization overnight at −20°C. Then, the parasites were incubated with propidium iodide (10 µg/mL) and RNase A (20 µg/mL) for 30 min. […] Miltefosine (25 µM) was employed as positive control and untreated parasites as negative control ([25]).

[2] = set-up: method as in PMID 34695563; details: plasma half-life; cited from earlier work
L. (L.) donovani = system: L. (L.) donovani; set-up: method as in PMID 29061745; details: with subsequent increase in Ca2+ and collapse of mitochondrial membrane potential; cited from earlier work
[3] = system: L. (L.) infantum promastigotes; type: cell-based, Leishmania (L.) infantum; details: compound 1 169.2 µM, sodium azide 10 mM; 2 and 4 h; H2DCFDA; vs untreated
Experimental: Promastigotes (2 × 10^6/well) were treated with compound 1 (169.2 µM) for 2 and 4 h, at 24°C. Later, H2DCFDA (5 µM) was added and the parasites were incubated for 15 min. Fluorescence was monitored in a spectrofluorometer with excitation and emission wavelengths of 485 and 535 nm, respectively ([19]). Sodium azide (10 mM) was employed as positive control and untreated parasites as negative control.

[4] = system: L. (L.) infantum promastigotes; test: DNA content / integrity (agarose gel electrophoresis); type: cell-based, Leishmania (L.) infantum; details: compound 1 169.2 µM, H2O2 10 mM; 24 h; 2% agarose gel
Experimental: Promastigotes (1 × 10^7/well) were treated with compound 1 (169.2 μM) in M199 medium supplemented with 10% FBS and 0.25% hemin, pH 7.2, for 24 h at 24°C. Then, the genetic material was extracted using the QIAamp DNA Mini Kit, according to the manufacturer’s instructions. Total DNA quantification was performed in a NanoDrop ND-1000 spectrophotometer (260/280 nm). The purified genetic material (300 ng) was analyzed by electrophoresis for 1 h at […] in a 2% agarose gel with ethidium bromide (0.5 µg/mL). Visualization was performed under UV light in a MiniBIS Pro transilluminator (DNR Bio Imaging System) ([21]). H2O2 (10 mM) was employed as positive control and untreated parasites as negative control ([26]).

[5] = system: L. (L.) infantum promastigotes; test: Plasma membrane permeability (Sytox Green); type: cell-based, Leishmania (L.) infantum; details: compound 1 169.2 µM, Triton X-100 0.5%, up to 4 h
Experimental: Promastigotes (2 × 10^6/well) were pretreated with Sytox Green (1 µM) for 15 min, at 24°C. Then, compound 1 (169.2 µM) was added and the fluorescence was monitored every 20 min up to 4 h in a spectrofluorometer, with excitation and emission wavelengths of 485 and 535 nm, respectively ([17]). Triton X-100 (0.5% vol/vol) was employed as positive control and untreated parasites as negative control ([18]).

[6] = system: L. (L.) infantum promastigotes; test: Mitochondrial membrane electric potential (JC-1, flow cytometry); type: cell-based, Leishmania (L.) infantum; details: compound 1 169.2 µM, CCCP 10 µM; 2 and 4 h; JC-1 BL-2/BL-1 ratio; vs untreated
Experimental: Promastigotes (2 × 10^6/well) were treated with compound 1 (169.2 µM) for 2 and 4 h, at 24°C. Then, JC-1 (10 µM) was added and the parasites were incubated for 20 min. Fluorescence was measured in a flow cytometer with an excitation wavelength of 488 nm and emission of 530 (BL-1) and 574 nm (BL-2). Mitochondrial membrane potential was established through the ratio of BL-2/BL-1 channels ([19]). Carbonyl cyanide m-chlorophenylhydrazone (CCCP) (10 µM) was employed as positive control and untreated parasites as negative control.

[7] = system: Peritoneal macrophages infected with L. (L.) infantum; test: Cytokines in infected macrophages (ELISA); type: cell-based, BALB/c mice; details: positive control 5 µg/mL
Experimental: L. (L.) infantum (MHOM/BR/1972/LD) promastigotes were maintained in M199 medium supplemented with 10% FBS and 0.25% hemin, pH 7.2 at 24°C. Amastigotes were isolated from golden hamsters (M. auratus) by differential centrifugation of infected spleens and the parasite’s number was determined according to Stauber ([14]). Peritoneal macrophages were obtained from the peritoneal cavity of BALB/c mice and maintained in RPMI-1640 medium supplemented with 10% FBS, pH 7.2 at 37°C.
Peritoneal macrophages (1 × 10^6/well) were infected with L. (L.) infantum […] (10:1 amastigotes/macrophage) for 24 h, at 37°C with 5% CO2. Subsequently, compound 1 (10 and 60 µM) was added and the incubation followed the same conditions described above. Cell supernatants were collected after 48 and 72 h and the cytokines (IL-4, IL-10, IL-12, and INF-γ) were measured using the BD OptEIA Mouse ELISA set kits, according to the manufacturer’s instructions. Concanavalin A (5 µg/mL) was employed as positive control and untreated cells as negative control.

## CCCCCCCCCCCCCCCCOP(=O)([O-])OCC[N+](C)(C)C [Miltefosine, reference compound]
[1]
  Proportion of parasites in different phases of the cell cycle (% ± SD): G0/G1: 53.8 ± 0.1 %
  Proportion of parasites in different phases of the cell cycle (% ± SD): M/G2: 18.1 ± 0.4%
  Proportion of parasites in different phases of the cell cycle (% ± SD): S: 10.5 ± 0.3%
  Proportion of parasites in different phases of the cell cycle (% ± SD): Sub G0: 7.1 ± 0.6 %
[2]
  T1/2: approximately 126 h
L. (L.) donovani
  effect on acidocalcisomes: alkalinization of acidocalcisomes

## [N-]=[N+]=[N-].[Na+] [sodium azide, Sodium azide, reference compound]
[3]
  ROS levels: increased ROS production

## OO [H2O2, reference compound]
[4]
  integrity of the genetic content (DNA): DNA fragmentation

## Triton X-100 [reference compound]
[5]
  plasma membrane permeability: significative permeabilization

## N#CC(C#N)=NNc1cccc(Cl)c1 [CCCP, Carbonyl cyanide m-chlorophenylhydrazone, reference compound]
[6]
  mitochondrial membrane electric potential (ΔΨm): Maximum depolarization

## concanavalin A [reference compound]
[7]
  production of cytokines (IL-4, IL-10, IL-12, INF-γ): tendency to increase
